From PubChem BioAssay AID248 (DTP/NCI, 2004)
Several values for one entry are separate records, joined by “and”; a condition that tells them apart may be missing. Equal entries are not always repeated. Inconclusive results and toxic doses are left out. No stated cut-off is given here; in the data, active means T/C of 150% or more; inactive means T/C below 125%.

Test system: L1210 leukemia ip in BDF1 mice, survival T/C
Assay: NCI In Vivo Anticancer Drug Screen. Data for tumor model L1210 Leukemia (intraperitoneal) in B6D2F1 (BDF1) mice
Conditions: endpoint: mean survival time, higher = longer survival
Method in brief: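 In this screen, tumor-bearing mice given compound are compared to those given vehicle, and their survival values are reported as a treated-to-control quotient.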

[1] = dose: 100.0 mg/kg/injection, schedule: Q04DX002 (ip), vehicle: Klucel (hydroxypropylcellulose) (HPC)
[2] = dose: 200.0 mg/kg/injection, schedule: Q04DX002 (ip), vehicle: Klucel (hydroxypropylcellulose) (HPC)
[3] = dose: 400.0 mg/kg/injection, schedule: Q04DX002 (ip), vehicle: Klucel (hydroxypropylcellulose) (HPC)
[4] = dose: 100.0 mg/kg/injection, schedule: Q01DX009 (ip), vehicle: Klucel (hydroxypropylcellulose) (HPC)
[5] = dose: 100.0 mg/kg/injection, schedule: Q04DX003 (ip), vehicle: Klucel (hydroxypropylcellulose) (HPC)
[6] = dose: 200.0 mg/kg/injection, schedule: Q01DX009 (ip), vehicle: Klucel (hydroxypropylcellulose) (HPC)
[7] = dose: 200.0 mg/kg/injection, schedule: Q04DX003 (ip), vehicle: Klucel (hydroxypropylcellulose) (HPC)
[8] = dose: 400.0 mg/kg/injection, schedule: Q01DX009 (ip), vehicle: Klucel (hydroxypropylcellulose) (HPC)
[9] = dose: 100.0 mg/kg/injection, schedule: Q04DX003 (ip), vehicle: saline
[10] = dose: 200.0 mg/kg/injection, schedule: Q04DX003 (ip), vehicle: saline
[11] = dose: 400.0 mg/kg/injection, schedule: Q04DX003 (ip), vehicle: saline
[12] = dose: 100.0 mg/kg/injection, schedule: Q01DX001 (ip), vehicle: other
[13] = dose: 200.0 mg/kg/injection, schedule: Q01DX001 (ip), vehicle: other
[14] = dose: 400.0 mg/kg/injection, schedule: Q01DX001 (ip), vehicle: other
[15] = dose: 100.0 mg/kg/injection, schedule: Q01DX009 (ip), vehicle: saline with Tween-80
[16] = dose: 100.0 mg/kg/injection, schedule: Q04DX003 (ip), vehicle: saline with Tween-80
[17] = dose: 200.0 mg/kg/injection, schedule: Q01DX009 (ip), vehicle: saline with Tween-80
[18] = dose: 200.0 mg/kg/injection, schedule: Q04DX003 (ip), vehicle: saline with Tween-80
[19] = dose: 400.0 mg/kg/injection, schedule: Q01DX009 (ip), vehicle: saline with Tween-80
[20] = dose: 400.0 mg/kg/injection, schedule: Q04DX003 (ip), vehicle: saline with Tween-80

Measured: T/C

O=C(NCCc1ccccc1)c1ccc(Cl)cc1
inactive: [1] 115 % of control | [2] 92 % of control | [3] 89 % of control

COC(OC)c1cc(=O)[nH]c(=S)n1Cl
inactive: [4] 86 % of control | [5] 102 % of control | [6] 91 % of control | [7] 107 % of control | [8] 91 % of control | dose: 400.0 mg/kg/injection, schedule: Q04DX003 (ip), vehicle: Klucel (hydroxypropylcellulose) (HPC) 105 % of control

COC1(OC)C2(Cl)C(Cl)=C(Cl)C1(Cl)C1C2CS1(=O)=O (stereo unspecified)
inactive: dose: 50.0 mg/kg/injection, schedule: Q01DX001 (ip), vehicle: carboxymethylcellulose (CMC) 100 % of control | dose: 100.0 mg/kg/injection, schedule: Q01DX001 (ip), vehicle: carboxymethylcellulose (CMC) 92 % of control | dose: 200.0 mg/kg/injection, schedule: Q01DX001 (ip), vehicle: carboxymethylcellulose (CMC) 100 % of control | dose: 400.0 mg/kg/injection, schedule: Q01DX001 (ip), vehicle: carboxymethylcellulose (CMC) 89 % of control

CC(C)NCC1CCCO1 (stereo unspecified)
inactive: [9] 94 % of control | [10] 94 % of control | [11] 97 % of control

O=C(OCCCCCCCOC(=O)c1ccc([N+](=O)[O-])cc1)c1ccc([N+](=O)[O-])cc1
inactive: [12] 101 % of control | [13] 96 % of control | [14] 95 % of control

O=S(=O)(O)c1cccc2cccc(N=Nc3ccc(O)cc3)c12
inactive: [12] 94 % of control | [13] 103 % of control | [14] 94 % of control

COc1ccc(COC(=O)Nc2ccccc2Cl)cc1
inactive: [4] 91 % of control | [1] 95 % of control | [6] 96 % of control | [8] 104 % of control | [3] 95 % of control

O=C(NC(=S)Nc1cccc(O)c1)c1ccco1
inactive: [15] 98 % of control | [16] 104 % of control | [17] 115 % of control | [18] 107 % of control | [19] 95 % of control | [20] 102 % of control

CCCCCCCCCCCCCCOS(=O)(=O)O
inactive: dose: 37.5 mg/kg/injection, schedule: Q04DX003 (ip), vehicle: saline 100 % of control | dose: 75.0 mg/kg/injection, schedule: Q01DX001 (ip), vehicle: saline 95 % of control | dose: 75.0 mg/kg/injection, schedule: Q04DX003 (ip), vehicle: saline 94 % of control | dose: 150.0 mg/kg/injection, schedule: Q01DX001 (ip), vehicle: saline 92 % of control | dose: 150.0 mg/kg/injection, schedule: Q04DX003 (ip), vehicle: saline 92 % of control

CCCCCCCCCC(=O)CCCC
inactive: [15] 122 % of control | [9] 94 % of control | [17] 96 % of control | [10] 98 % of control | [19] 104 % of control | [11] 94 % of control

C=CCOC(=O)C1c2ccccc2Cc2ccccc21
inactive: [16] 97 % of control | [18] 97 % of control | [20] 95 % of control

O=C(Nc1ccccc1F)Oc1ccc(OCc2ccccc2)cc1
inactive: [4] 101 % of control | [6] 101 % of control | [8] 101 % of control

Cc1c(N)cccc1N
inactive: dose: 12.5 mg/kg/injection, schedule: Q01DX009 (ip), vehicle: saline with Tween-80 119 % of control | dose: 12.5 mg/kg/injection, schedule: Q04DX003 (ip), vehicle: saline with Tween-80 95 % of control | dose: 25.0 mg/kg/injection, schedule: Q01DX009 (ip), vehicle: saline with Tween-80 108 % of control | dose: 25.0 mg/kg/injection, schedule: Q04DX003 (ip), vehicle: saline with Tween-80 117 % of control | dose: 50.0 mg/kg/injection, schedule: Q04DX003 (ip), vehicle: saline with Tween-80 117 % of control

COC1(c2ccccc2)ON=C(c2ccccc2)C=C1c1ccccc1 (stereo unspecified)
inactive: [9] 93 % of control | [10] 91 % of control | [11] 99 % of control

CCOC(=O)CNc1ccc(C(F)(F)F)cc1
inactive: [1] 104 % of control | [2] 104 % of control | [3] 97 % of control

COc1ccc(C(=O)NC2C(OC(C)=O)OC(COC(C)=O)C(OC(C)=O)C2OC(C)=O)cc1 (stereo unspecified)
inactive: dose: 100.0 mg/kg/injection, schedule: Q01DX001 (ip), vehicle: saline 98 % of control and 101 % of control | dose: 200.0 mg/kg/injection, schedule: Q01DX001 (ip), vehicle: saline 96 % of control and 106 % of control | dose: 400.0 mg/kg/injection, schedule: Q01DX001 (ip), vehicle: saline 90 % of control and 89 % of control

CN1C(=O)N(Br)C(C)(C)C1=O
inactive: dose: 50.0 mg/kg/injection, schedule: Q01DX009 (ip), vehicle: Klucel (hydroxypropylcellulose) (HPC) 95 % of control | dose: 50.0 mg/kg/injection, schedule: Q04DX003 (ip), vehicle: Klucel (hydroxypropylcellulose) (HPC) 106 % of control | dose: 100.0 mg/kg/injection, schedule: Q01DX001 (ip), vehicle: Klucel (hydroxypropylcellulose) (HPC) 92 % of control | [4] 98 % of control | [5] 100 % of control | dose: 200.0 mg/kg/injection, schedule: Q01DX001 (ip), vehicle: Klucel (hydroxypropylcellulose) (HPC) 102 % of control | [7] 97 % of control

NC(CCC(=O)NC(=O)OCc1ccccc1)C(=O)O (stereo unspecified)
inactive: [15] 102 % of control | [17] 100 % of control | [19] 97 % of control

CCCCCCCCSC(=O)N(C(C)C)C(C)C
inactive: dose: 50.0 mg/kg/injection, schedule: Q04DX002 (ip), vehicle: saline 100 % of control | dose: 100.0 mg/kg/injection, schedule: Q04DX002 (ip), vehicle: saline 100 % of control and 105 % of control | dose: 200.0 mg/kg/injection, schedule: Q04DX002 (ip), vehicle: saline 100 % of control | dose: 400.0 mg/kg/injection, schedule: Q04DX002 (ip), vehicle: saline 108 % of control and 86 % of control

CCn1c2ccccc2c2cc(/C=C\[N+](=O)[O-])ccc21
inactive: [1] 91 % of control | [2] 94 % of control | [3] 97 % of control
